Source: patent US20250353891A1 (MEDIMMUNE LIMITED, priority 2022, published 2025)
Like-named read-outs stand apart in the source and are kept apart here. Starred links: 1 amine or outer side, 2 acyl side, 3 side chain; linkers in the order of their positions; H or OH if unused. Non-standard residues stand in square brackets, D forms with d. Residues, ends and D or L forms follow the SMILES beside them. Groups on a side chain read outwards from the residue. *: point of attachment. C20 diacid = O=C(O)CCCCCCCCCCCCCCCCCCC(=O)*; C18 diacid = O=C(O)CCCCCCCCCCCCCCCCC(=O)*; γGlu = O=C(O)[C@H](CCC(=O)[*:2])N[*:1]; αMeF = C[C@](N)(Cc1ccccc1)C(=O)O; AEEA = NCCOCCOCC(=O)O; Aib = CC(C)(N)C(=O)O

Key:
[1] = target: human glucagon receptor (hGCGR) (Homo sapiens, UniProt P47871); test: cAMP production (HTRF) in CHO cells expressing hGCGR; format: cell-based; set-up: expressed in transfected cells; details: geometric mean, read-out: hGluc-R EC50
Summary of the method: (§1)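 Read-out: HTRF cAMP (anti-cAMP cryptate donor, cAMP-d2 acceptor in conjugate/lysis buffer), converted to % Delta F and fitted by 4-parameter logistic for EC50. Cell densities were 1×10^5 cells/mL (hGLP-1R) or 2×10^5 cells/mL (hGCGR). Stimulation lasted 30 min at room temperature.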

[2] = target: human GLP-1 receptor (hGLP-1R) (Homo sapiens, UniProt P43220); test: cAMP production (HTRF) in CHO cells expressing hGLP-1R; format: cell-based; set-up: expressed in transfected cells; details: for % Relative Potency Ratio: % GLP-1R activity relative to GLP-1 / % GlucR activity relative to glucagon; for EC50: geometric mean, read-out: hGLP-1R EC50
Summary of the method: as §1

[3] = Table 6, peptides modified at position 17, cAMP in CHO hGCGR cells
[4] = Table 6, peptides modified at position 17, cAMP in CHO hGLP-1R cells

Chain of human GLP-1 receptor (hGLP-1R) (P43220 24-463): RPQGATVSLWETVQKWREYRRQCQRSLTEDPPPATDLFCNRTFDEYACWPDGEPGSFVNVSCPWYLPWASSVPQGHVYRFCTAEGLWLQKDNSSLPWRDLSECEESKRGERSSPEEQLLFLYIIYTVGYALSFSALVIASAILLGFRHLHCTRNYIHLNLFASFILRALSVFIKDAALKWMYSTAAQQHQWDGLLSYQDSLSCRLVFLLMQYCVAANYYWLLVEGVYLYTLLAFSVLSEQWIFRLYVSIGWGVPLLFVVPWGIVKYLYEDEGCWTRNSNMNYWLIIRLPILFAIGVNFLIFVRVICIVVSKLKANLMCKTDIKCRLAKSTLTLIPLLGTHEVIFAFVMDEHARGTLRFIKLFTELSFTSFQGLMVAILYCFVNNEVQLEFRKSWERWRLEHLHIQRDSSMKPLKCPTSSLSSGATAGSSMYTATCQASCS
Chain of human glucagon receptor (hGCGR) (P47871 26-477): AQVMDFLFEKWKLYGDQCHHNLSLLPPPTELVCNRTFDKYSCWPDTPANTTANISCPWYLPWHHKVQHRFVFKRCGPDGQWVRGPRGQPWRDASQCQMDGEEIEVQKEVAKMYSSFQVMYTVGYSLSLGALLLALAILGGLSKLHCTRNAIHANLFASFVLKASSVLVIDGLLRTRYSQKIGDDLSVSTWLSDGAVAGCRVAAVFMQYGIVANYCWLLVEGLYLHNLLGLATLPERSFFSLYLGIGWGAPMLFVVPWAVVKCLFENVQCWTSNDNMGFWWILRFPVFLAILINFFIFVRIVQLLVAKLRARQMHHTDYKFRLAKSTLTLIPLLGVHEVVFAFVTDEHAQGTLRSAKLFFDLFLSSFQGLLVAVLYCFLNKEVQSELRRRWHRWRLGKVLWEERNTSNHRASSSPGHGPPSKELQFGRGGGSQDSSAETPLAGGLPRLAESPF

Row | SMILES | EC50 ([1]; cAMP, CHO cells, 0.1% BSA) | % Relative Potency Ratio [2] | EC50 ([2]; cAMP, CHO cells, 0.1% BSA) | EC50 [1, 3] | EC50 [2, 4] | % Relative Potency Ratio ([2]; Table 6)
1 | CC[C@H](C)[C@H](NC(=O)C(C)(C)NC(=O)[C@H](CCC(N)=O)NC(=O)[C@@H](NC(=O)[C@](C)(Cc1ccccc1)NC(=O)[C@H](CC(=O)O)NC(=O)[C@H](CCC(N)=O)NC(=O)[C@H](C)NC(=O)[C@H](C)NC(=O)[C@H](CCCNC(=N)N)NC(=O)[C@H](CO)NC(=O)[C@H](CC(=O)O)NC(=O)[C@H](CC(C)C)NC(=O)[C@H](CCCCNC(=O)COCCOCCNC(=O)COCCOCCNC(=O)CC[C@H](NC(=O)CCCCCCCCCCCCCCCCC(=O)O)C(=O)O)NC(=O)[C@H](CCCCN)NC(=O)[C@H](CO)NC(=O)[C@@H](NC(=O)[C@H](CC(=O)O)NC(=O)[C@H](CO)NC(=O)[C@@H](NC(=O)[C@](C)(Cc1ccccc1)NC(=O)[C@H](CO)NC(=O)CNC(=O)[C@H](Cc1c[nH]cn1)NC(=O)C(C)(C)NC(=O)[C@@H](N)Cc1c[nH]cn1)[C@@H](C)O)C(C)C)C(C)C)C(=O)N[C@@H](C)C(=O)N[C@@H](CC(N)=O)C(=O)N[C@H](C(N)=O)[C@@H](C)O [Peptide 406] (H-H[Aib]HGS[αMeF]TSDVSKK([AEEA-AEEA-γGlu-C18 diacid])LDSRAAQD[αMeF]VQ[Aib]IANT-NH2; N-terminus assumed) | 7310 pM | 31.6 | 458 pM | – | – | –
2 | CC(C)C[C@H](NC(=O)[C@H](Cc1c[nH]c2ccccc12)NC(=O)[C@H](CCCNC(=N)N)NC(=O)[C@@H](NC(=O)[C@H](Cc1ccccc1)NC(=O)[C@H](CC(=O)O)NC(=O)[C@H](CCC(N)=O)NC(=O)[C@H](C)NC(=O)[C@H](CCCNC(=N)N)NC(=O)[C@H](CCCCNC(=O)COCCOCCNC(=O)COCCOCCNC(=O)CC[C@H](NC(=O)CC[C@H](NC(=O)CCCCCCCCCCCCCCCCCCC(=O)O)C(=O)O)C(=O)O)NC(=O)[C@@H](NC(=O)[C@H](CC(=O)O)NC(=O)[C@H](CC(C)C)NC(=O)[C@](C)(Cc1ccccc1)NC(=O)[C@H](CCCCN)NC(=O)[C@H](CO)NC(=O)[C@@H](NC(=O)[C@H](CC(=O)O)NC(=O)[C@H](CO)NC(=O)[C@@H](NC(=O)[C@H](Cc1ccccc1)NC(=O)[C@@H](NC(=O)CNC(=O)[C@H](CCC(N)=O)NC(=O)C(C)(C)NC(=O)[C@@H](N)Cc1c[nH]cn1)[C@@H](C)O)[C@@H](C)O)C(C)C)[C@@H](C)O)C(C)C)C(=O)N[C@@H](CCC(=O)O)C(=O)N[C@@H](C)C(=O)NC(C)(C)C(=O)NCC(=O)O [Peptide 408] (H-H[Aib]QGTFTSDVSK[αMeF]LDTK([AEEA-AEEA-γGlu-γGlu-C20 diacid])RAQDFVRWLEA[Aib]G-OH; N-terminus assumed) | – | – | – | 828 pM | 370 pM | 4.4
3 | CC(C)C[C@H](NC(=O)[C@H](Cc1c[nH]c2ccccc12)NC(=O)[C@H](C)NC(=O)[C@@H](NC(=O)[C@H](Cc1ccccc1)NC(=O)[C@H](CC(=O)O)NC(=O)[C@H](CCCNC(=N)N)NC(=O)[C@H](C)NC(=O)[C@H](CCCNC(=N)N)NC(=O)[C@H](CCCCNC(=O)COCCOCCNC(=O)COCCOCCNC(=O)CC[C@H](NC(=O)CCCCCCCCCCCCCCCCC(=O)O)C(=O)O)NC(=O)[C@@H](NC(=O)[C@H](CC(=O)O)NC(=O)[C@H](CC(C)C)NC(=O)[C@](C)(Cc1ccccc1)NC(=O)[C@H](CCCCN)NC(=O)[C@H](CO)NC(=O)[C@@H](NC(=O)[C@H](CC(=O)O)NC(=O)[C@H](CO)NC(=O)[C@@H](NC(=O)[C@H](Cc1ccccc1)NC(=O)[C@@H](NC(=O)CNC(=O)[C@H](CCC(N)=O)NC(=O)C(C)(C)NC(=O)[C@@H](N)Cc1c[nH]cn1)[C@@H](C)O)[C@@H](C)O)C(C)C)[C@@H](C)O)C(C)C)C(=O)N[C@@H](CC(C)C)C(=O)NC(C)(C)C(=O)N[C@H](C(=O)N[C@@H](CCC(=O)O)C(=O)O)[C@@H](C)O [Peptide 409] (H-H[Aib]QGTFTSDVSK[αMeF]LDTK([AEEA-AEEA-γGlu-C18 diacid])RARDFVAWLL[Aib]TE-OH; N-terminus assumed) | – | – | – | 203 pM | 22.7 pM | 17.7
4 | CC(C)C[C@H](NC(=O)[C@H](Cc1c[nH]c2ccccc12)NC(=O)[C@H](C)NC(=O)[C@@H](NC(=O)[C@H](Cc1ccccc1)NC(=O)[C@H](CC(=O)O)NC(=O)[C@H](CCCNC(=N)N)NC(=O)[C@H](C)NC(=O)[C@H](CCCNC(=N)N)NC(=O)[C@H](CCCCNC(=O)COCCOCCNC(=O)COCCOCCNC(=O)CC[C@H](NC(=O)CCCCCCCCCCCCCCCCCCC(=O)O)C(=O)O)NC(=O)[C@@H](NC(=O)[C@H](CC(=O)O)NC(=O)[C@H](CC(C)C)NC(=O)[C@](C)(Cc1ccccc1)NC(=O)[C@H](CCCCN)NC(=O)[C@H](CO)NC(=O)[C@@H](NC(=O)[C@H](CC(=O)O)NC(=O)[C@H](CO)NC(=O)[C@@H](NC(=O)[C@H](Cc1ccccc1)NC(=O)[C@@H](NC(=O)CNC(=O)[C@H](CCC(N)=O)NC(=O)C(C)(C)NC(=O)[C@@H](N)Cc1c[nH]cn1)[C@@H](C)O)[C@@H](C)O)C(C)C)[C@@H](C)O)C(C)C)C(=O)N[C@@H](CC(C)C)C(=O)NC(C)(C)C(=O)N[C@H](C(=O)N[C@@H](CCC(=O)O)C(=O)O)[C@@H](C)O [Peptide 410] (H-H[Aib]QGTFTSDVSK[αMeF]LDTK([AEEA-AEEA-γGlu-C20 diacid])RARDFVAWLL[Aib]TE-OH; N-terminus assumed) | – | – | – | 455 pM | 78 pM | 11.5
5 | CC(C)C[C@H](NC(=O)[C@H](Cc1c[nH]c2ccccc12)NC(=O)[C@H](C)NC(=O)[C@@H](NC(=O)[C@H](Cc1ccccc1)NC(=O)[C@H](CC(=O)O)NC(=O)[C@H](CCC(N)=O)NC(=O)[C@H](C)NC(=O)[C@H](CCCNC(=N)N)NC(=O)[C@H](CCCCNC(=O)COCCOCCNC(=O)COCCOCCNC(=O)CC[C@H](NC(=O)CCCCCCCCCCCCCCCCC(=O)O)C(=O)O)NC(=O)[C@@H](NC(=O)[C@H](CC(=O)O)NC(=O)[C@H](CC(C)C)NC(=O)[C@](C)(Cc1ccccc1)NC(=O)[C@H](CCCCN)NC(=O)[C@H](CO)NC(=O)[C@@H](NC(=O)[C@H](CC(=O)O)NC(=O)[C@H](CO)NC(=O)[C@@H](NC(=O)[C@H](Cc1ccccc1)NC(=O)[C@@H](NC(=O)CNC(=O)[C@H](CCC(N)=O)NC(=O)C(C)(C)NC(=O)[C@@H](N)Cc1c[nH]cn1)[C@@H](C)O)[C@@H](C)O)C(C)C)[C@@H](C)O)C(C)C)C(=O)N[C@@H](CCC(=O)O)C(=O)N[C@@H](C)C(=O)NCC(=O)NCC(=O)O [Peptide 411] (H-H[Aib]QGTFTSDVSK[αMeF]LDTK([AEEA-AEEA-γGlu-C18 diacid])RAQDFVAWLEAGG-OH; N-terminus assumed) | – | – | – | 378 pM | 98.1 pM | 7.6
6 | CC(C)C[C@H](NC(=O)[C@H](Cc1c[nH]c2ccccc12)NC(=O)[C@H](C)NC(=O)[C@@H](NC(=O)[C@H](Cc1ccccc1)NC(=O)[C@H](CC(=O)O)NC(=O)[C@H](CCC(N)=O)NC(=O)[C@H](C)NC(=O)[C@H](CCCNC(=N)N)NC(=O)[C@H](CCCCNC(=O)COCCOCCNC(=O)COCCOCCNC(=O)CC[C@H](NC(=O)CCCCCCCCCCCCCCCCCCC(=O)O)C(=O)O)NC(=O)[C@@H](NC(=O)[C@H](CC(=O)O)NC(=O)[C@H](CC(C)C)NC(=O)[C@](C)(Cc1ccccc1)NC(=O)[C@H](CCCCN)NC(=O)[C@H](CO)NC(=O)[C@@H](NC(=O)[C@H](CC(=O)O)NC(=O)[C@H](CO)NC(=O)[C@@H](NC(=O)[C@H](Cc1ccccc1)NC(=O)[C@@H](NC(=O)CNC(=O)[C@H](CCC(N)=O)NC(=O)C(C)(C)NC(=O)[C@@H](N)Cc1c[nH]cn1)[C@@H](C)O)[C@@H](C)O)C(C)C)[C@@H](C)O)C(C)C)C(=O)N[C@@H](CCC(=O)O)C(=O)N[C@@H](C)C(=O)NCC(=O)NCC(=O)O [Peptide 412] (H-H[Aib]QGTFTSDVSK[αMeF]LDTK([AEEA-AEEA-γGlu-C20 diacid])RAQDFVAWLEAGG-OH; N-terminus assumed) | – | – | – | 397 pM | 186 pM | 4.2
7 | CC(C)C[C@H](NC(=O)[C@H](Cc1c[nH]c2ccccc12)NC(=O)[C@H](C)NC(=O)[C@@H](NC(=O)[C@H](Cc1ccccc1)NC(=O)[C@H](CC(=O)O)NC(=O)[C@H](CCC(N)=O)NC(=O)[C@H](C)NC(=O)[C@H](CCCNC(=N)N)NC(=O)[C@H](CCCCNC(=O)COCCOCCNC(=O)COCCOCCNC(=O)CC[C@H](NC(=O)CC[C@H](NC(=O)CCCCCCCCCCCCCCCCCCC(=O)O)C(=O)O)C(=O)O)NC(=O)[C@@H](NC(=O)[C@H](CC(=O)O)NC(=O)[C@H](CC(C)C)NC(=O)[C@](C)(Cc1ccccc1)NC(=O)[C@H](CCCCN)NC(=O)[C@H](CO)NC(=O)[C@@H](NC(=O)[C@H](CC(=O)O)NC(=O)[C@H](CO)NC(=O)[C@@H](NC(=O)[C@H](Cc1ccccc1)NC(=O)[C@@H](NC(=O)CNC(=O)[C@H](CCC(N)=O)NC(=O)C(C)(C)NC(=O)[C@@H](N)Cc1c[nH]cn1)[C@@H](C)O)[C@@H](C)O)C(C)C)[C@@H](C)O)C(C)C)C(=O)N[C@@H](CCC(=O)O)C(=O)N[C@@H](C)C(=O)NCC(=O)NCC(=O)O [Peptide 413] | – | – | – | 1020 pM | 406 pM | 5.0
